Measured values as given in patent EP0108170A1, “3-Benzazepines as alpha-2 antagonists” (SMITHKLINE BECKMAN CORPORATION, priority 1982, dated 1984).

Assays:
alpha2 = experiment: prejunctional alpha2 antagonist activity, isolated superfused guinea pig left atrium (shift of clonidine concentration-response curve); assay type: cell-based
Procedure: Briefly, the heart is removed from a pentobarbital-anesthetized male guinea pig. The left atrium is removed, dissected free of extraneous tissue and mounted in a 2 ml. superfusion chamber. The tissue is paced at 60 pulse/minute and the sympathetic nerves excited at 6 minute intervals by field stimulation. The response to nerve stimulation is measured as the difference in contractile force between the basal contraction and peak contraction following a nerve stimulation. A concentration-response curve for clonidine (alpha2 agonist) is prepared by administering an increasing concentration of clonidine following each successive stimulation. The tissue is then superfused with the alpha2 antagonist to be tested for thirty minutes and the clonidine concentration-effect curve was repeated in the presence of antagonist. The receptor dissociation constant of the antagonist (KB) is defined as the antagonist concentration required to shift the log concentration-response curve of the agonist to the right by a factor of 2.

rabbit = experiment: normal rabbit intraocular pressure determination (applanation pneumatonograph); assay type: in vivo; conditions: given systemically
[1] = tested on: normotensive and hypertensive rats; experiment: antihypertensive activity in vivo, blood pressure in conscious cannulated rats; conditions: for effect on diastolic blood pressure: i.v. administration
Procedure: Cannulas are run intradermally so as to be externalized in the dorso-sacral area of either side and kept in place by wound clips. The rats are allowed to regain consciousness after being placed in a small animal restrainer. The arterial cannula is connected to a pressure transducer for constant blood pressure and heart rate monitoring. Drugs are administered either orally via gavage or i.v. via the femoral vein cannula at a rate of 0.06 ml./minute.
The above test is conducted on both normotensive and hypertensive rats. DOCA Salt hypertensive rats are prepared from male uninephrectomized Sprague-Dawley rats. The rats, approximately six weeks of age, are lightly anesthetized with ether and subcutaneously implanted with a 25 mg. deoxycorticosterone acetate pellet in the left dorso-sacral area..Six days later a second pellet is implanted in the right dorso-sacral area. These rats are fed a normal laboratory diet, but are given 1% saline - solution to drink in place of water. The rats are kept on the saline drinking water for 22-24 days.
The following table sets forth the effect of 6-chloro-2,3,4,5-tetrahydro-3-methyl-lH-3-benzazepine on blood pressure after i.v. administration to both normotensive and hypertensive rats.

Structure (SMILES)	Kb (alpha2; isolated perfused guinea pig left atrium, antagonist concentration shifting clonidine curve to the right by a factor of 2) [nM]	effect on systemic blood pressure (rabbit)	effect on diastolic blood pressure ([1]; DOCA Salt hypertensive rats)	antihypertensive effect, dose dependence ([1]; comparison of the 0.5 mg./kg. and 1.0 mg./kg. doses, i.v.)	effect on diastolic blood pressure ([1]; normotensive rats)	effect on diastolic blood pressure ([1]; spontaneously hypertensive rats)	alpha2 antagonist activity relative to the 6-chloro derivative (alpha2; fraction of the activity of the 6-chloro derivative)
CN1CCc2cccc(Cl)c2CC1 [6-chloro-2,3,4,5-tetrahydro-3-methyl-lH-3-benzazepine]	13	no significant effect	marked drop	dose- related	little effect	marked drop	–
CN1CCc2ccc(Cl)cc2CC1 [7-chloro-2,3,4,5-tetrahydro-3-methyl-lH-3-benzazepine, reference compound]	–	–	–	–	–	–	about one tenth
